# Laboratory results taken from US20040209914A1, “Aromatic sulfone hydroxamic acids and their use as protease inhibitors” (priority 2000, published 2004).
# Counter-ions that a name gives are not always drawn.
# Legend:
# Recombinant human MMP-2 = target: T1, Recombinant human MMP-2 (Homo sapiens, UniProt P08253); test: biochemical; conditions: fluorogenic MCA-peptide substrate, pH 7.5, room temperature; read-out: MMP-2 IC50
# T1 construct: made in house
# T1 sequence (P08253 110-660): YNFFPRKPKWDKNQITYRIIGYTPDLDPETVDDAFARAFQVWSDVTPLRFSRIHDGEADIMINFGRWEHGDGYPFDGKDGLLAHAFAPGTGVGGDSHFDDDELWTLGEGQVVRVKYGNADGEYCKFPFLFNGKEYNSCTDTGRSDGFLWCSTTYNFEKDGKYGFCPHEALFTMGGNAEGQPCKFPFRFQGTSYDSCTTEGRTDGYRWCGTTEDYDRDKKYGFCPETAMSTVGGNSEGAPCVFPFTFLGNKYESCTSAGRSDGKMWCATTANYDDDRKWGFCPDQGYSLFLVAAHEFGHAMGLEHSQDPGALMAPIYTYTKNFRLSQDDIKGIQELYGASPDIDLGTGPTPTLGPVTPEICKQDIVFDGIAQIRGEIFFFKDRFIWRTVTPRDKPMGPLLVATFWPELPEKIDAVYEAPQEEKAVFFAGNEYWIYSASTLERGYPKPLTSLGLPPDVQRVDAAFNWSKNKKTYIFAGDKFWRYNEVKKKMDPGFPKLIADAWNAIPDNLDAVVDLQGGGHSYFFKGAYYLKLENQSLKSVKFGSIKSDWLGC
# Procedure: (§1) Recombinant human MMP-1, MMP-2, MMP-9, MMP-13, and were used in this assay. These enzymes were prepared in the Assignee's es following usual laboratory procedures. Specifics for preparing and e enzymes can be found in the scientific literature describing these See, e.g., Enzyme Nomenclature (Academic Press, San Diego, Calif., d the citations therein).
# The MMP-2 was obtained from MMP-2 expressing transfected cells provided by Dr. Gregory Goldberg of Washington University.
# (§2) The enzyme substrate was a methoxycoumarin-containing polypeptide having the following sequence:
# (§3) MCA-ProLeuGlyLeuDpaAlaArgNH2
# (§4) Here, “MCA” is methoxycoumarin and “Dpa” is 3-(2,4-dinitrophenyl)-L-2,3-diaminopropionyl alanine.
# (§5) These solutions were then compared to a control (which contained equal amount of DMSO/buffer solution, but no hydroxamate compound) using Microfluor™ White Plates (Dynatech, Chantilly, Va.). Specifically, The MMPs were activated with APMA or trypsin. […] The control likewise was incubated at room temperature in separate plates with the MMP and 4 uM of the MMP substrate. […] Inhibition was measured as a reduction in fluorescent intensity as a function of inhibitor concentration using a Perkin Elmer (Norwalk, Conn.) L550 plate reader. The IC50's were then calculated from these measurements.
# Recombinant human MMP-13 = target: T2, Recombinant human MMP-13 (Homo sapiens, UniProt P45452); test: biochemical; conditions: fluorogenic MCA-peptide substrate, pH 7.5, room temperature; read-out: MMP-13 IC50
# T2 construct: made in house; host or cells: baculovirus / insect cells
# Procedure: as §1
# The expressed proenzyme was first purified over a heparin agarose column, and then over a chelating zinc chloride column. The proenzyme was then activated by APMA for use in the assay.
# as §2, §3, §4, §5
SMILES,IC50 (Recombinant human MMP-2),IC50 (Recombinant human MMP-13)
Cn1ccc2cc(C(=O)C3CCN(c4ccc(S(=O)(=O)C5(C(=O)NO)CCOCC5)cc4)CC3)ccc21 [Example 340],10 µM,–
CS(=O)(=O)N1CCC(C(=O)NO)(S(=O)(=O)c2ccc(N3CCC(C(=O)c4ccc5ccccc5c4)CC3)cc2)CC1 [Example 166],> 10 µM,0.438 µM
COCCN1CCC(C(=O)NO)(S(=O)(=O)c2ccc(N3CCC(C(=O)c4ccc(C=C(C)C)s4)CC3)cc2)CC1 [Example 122],0.106 µM,0.0001 µM
C#CCN1CCC(C(=O)NO)(S(=O)(=O)c2ccc(N3CCC(C(=O)c4ccc(NC)cc4)CC3)cc2)CC1 [Example 173],0.117 µM,0.0009 µM
COCCN1CCC(C(=O)NO)(S(=O)(=O)c2ccc(N3CCC(C(=O)c4cccc(C)c4)CC3)c(Cl)c2)CC1 [Example 277],> 10 µM,0.275 µM
O=C(NO)C1(S(=O)(=O)c2ccc(N3CCC(SCc4ccc(OC(F)(F)F)cc4)CC3)cc2)CCNCC1 [Example 146],0.2 µM,0.004 µM
C[C@@H]1CN(C(=O)C2CCN(c3ccc(S(=O)(=O)C4(C(=O)NO)CCOCC4)cc3)CC2)C[C@H](C)O1 [Example 30],> 10 µM,0.0181 µM
COCCN1CCC(C(=O)NO)(S(=O)(=O)c2ccc(N3CCC(C(=O)c4ccc(CN5CCOCC5)cc4)CC3)cc2)CC1 [Example 240],0.086 µM,0.0028 µM
COCCN1CCC(C(=O)NO)(S(=O)(=O)c2ccc(N3CCC(c4nc5ccccc5o4)CC3)cc2)CC1 [Example 258],0.0454 µM,0.0141 µM
CN(C)CCN1CCN(C(=O)C2CCN(c3ccc(S(=O)(=O)C4(C(=O)NO)CCOCC4)cc3)CC2)CC1 [Example 19],10 µM,–
COCCN1CCC(C(=O)NO)(S(=O)(=O)c2ccc(N3CCC(C(=O)c4ccc(C)cc4)CC3)c(Cl)c2)CC1 [Example 275],6.74 µM,0.184 µM
COCCN1CCC(C(=O)NO)(S(=O)(=O)c2ccc(N3CCC(C(=O)c4ccc(CCCC(C)O)cc4)CC3)cc2)CC1 (stereo not drawn) [Example 244],–,0.0002 µM
O=C(NO)C1(S(=O)(=O)c2ccc(N3CCC(SCc4ccccc4Cl)CC3)cc2)CCN(C2CC2)CC1 [Example 147],0.145 µM,0.02 µM
COCCN1CCC(C(=O)NO)(S(=O)(=O)c2ccc(N3CCC(C(=O)c4ccc(OC(C)C)c(F)c4)CC3)cc2)CC1 [Example 250],0.107 µM,0.0021 µM
COCCN1CCC(C(=O)NO)(S(=O)(=O)c2ccc(N3CCC(C(=O)c4ccc(CCC(C)O)cc4)CC3)cc2)CC1 (stereo not drawn) [Example 245],0.0386 µM,0.0011 µM
O=C(NO)C1(S(=O)(=O)c2ccc(N3CCC(c4ccc(Cl)cc4)CC3)cc2)CCN(C2CC2)CC1 [Example 261],0.001 µM,0.0008 µM
O=C(Cc1ccccc1)C1CCN(c2ccc(S(=O)(=O)C3(C(=O)NO)CCOCC3)cc2)CC1 [Example 386],1.9 µM,0.0152 µM
O=C(NO)C1(S(=O)(=O)c2ccc(N3CCC(N4CCc5ccccc54)CC3)cc2)CCOCC1 [Example 383],0.382 µM,0.0369 µM
C=CCN1CCC(C(=O)NO)(S(=O)(=O)c2ccc(N3CCC(C(=O)c4ccc(CCC)cc4)CC3)cc2)CC1 [Example 159],0.0322 µM,0.0005 µM
COc1ccc(C(=O)C2CCN(c3ccc(S(=O)(=O)C4(C(=O)NO)CCNCC4)cc3)CC2)cc1 [Example 140],0.8 µM,0.0181 µM
O=C(NO)C1(S(=O)(=O)c2ccc(N3CCC(c4ccc(Cl)cc4)CC3)cc2)CCN(CC2CC2)CC1 [Example 266],–,0.0017 µM
COCCN1CCC(C(=O)NO)(S(=O)(=O)c2ccc(N3CCC(c4ccc(F)cc4)CC3)cc2)CC1 [Example 262],0.0017 µM,0.001 µM
O=C(c1ccc(CC2CCCCC2)cc1)C1CCN(c2ccc(S(=O)(=O)C3(C(=O)NO)CCN(C4CC4)CC3)cc2)CC1 [Example 198],2.57 µM,0.012 µM

SMILES,IC50 (Recombinant human MMP-2),IC50 (Recombinant human MMP-13)
CCN1CCC(C(=O)NO)(S(=O)(=O)c2ccc(N3CCC(C(=O)c4ccc(NC)cc4)CC3)cc2)CC1 [Example 172],0.649 µM,0.0031 µM
O=C(Cc1cccs1)C1CCN(c2ccc(S(=O)(=O)C3(C(=O)NO)CCOCC3)cc2)CC1 [Example 387],0.344 µM,0.0045 µM
COc1ccc(C(=O)C2CCN(c3ccc(S(=O)(=O)C4(C(=O)NO)CCN(C(=O)c5ccco5)CC4)cc3)CC2)cc1 [Example 139],0.33 µM,0.0018 µM
CNc1ccc(C(=O)C2CCN(c3ccc(S(=O)(=O)C4(C(=O)NO)CCN(S(C)(=O)=O)CC4)cc3)CC2)cc1 [Example 167],2.95 µM,0.0047 µM
COCCN1CCC(C(=O)NO)(S(=O)(=O)c2ccc(N3CCC(Sc4nccs4)CC3)cc2)CC1 [Example 256],0.0354 µM,0.0075 µM
CN(C)c1ccc(C(=O)C2CCN(c3ccc(S(=O)(=O)C4(C(=O)NO)CCOCC4)cc3)CC2)cc1 [Example 320],10 µM,–
CCCCOc1ccc(C(=O)C2CCN(c3ccc(S(=O)(=O)C4(C(=O)NO)CCOCC4)cc3)CC2)cc1 [Example 329],1.8 µM,0.02 µM
COCCN1CCC(C(=O)NO)(S(=O)(=O)c2ccc(N3CCC(C(=O)c4ccc(OCCC5CCCCC5)cc4)CC3)cc2)CC1 [Example 228],0.155 µM,0.0195 µM
COCCN1CCC(C(=O)NO)(S(=O)(=O)c2ccc(N3CCC(C(=O)c4cccc(OC)c4)CC3)c(Cl)c2)CC1 [Example 276],2.73 µM,0.127 µM
O=C(NO)C1(S(=O)(=O)c2ccc(N3CCC(SCc4cccc(C(F)(F)F)c4)CC3)cc2)CCN(C2CC2)CC1 [Example 149],0.21 µM,0.0169 µM
CC1CC(C)CN(C(=O)C2CCN(c3ccc(S(=O)(=O)C4(C(=O)NO)CCN(C(=O)CN5CCN(CCN(C)C)CC5)CC4)cc3)CC2)C1 (stereo not drawn) [Example 111],10 µM,–
O=C(NO)C1(S(=O)(=O)c2ccc(N3CCC(c4ccc(F)cc4)CC3)cc2)CCN(C2CC2)CC1 [Example 259],0.0006 µM,0.0004 µM
"C[C@H]1C[C@H](C)CN(C(=O)C2CCN(c3ccc(S(=O)(=O)C4(C(=O)NO)CCNCC4)cc3)CC2)C1 (relative stereo) [Example 72, rel-4-[[4-[4-[[(3R,5R)-3,5-dimethyl-1-piperidinyl]carbonyl]-1-piperidinyl]phenyl]sulfonyl]-N-hydroxy-4-piperidinecarboxamide, monohydrochloride]",10 µM,–
CCCc1ccc(C(=O)C2CCN(c3ccc(S(=O)(=O)C4(C(=O)NO)CCN(S(C)(=O)=O)CC4)cc3)CC2)cc1 [Example 165],1.75 µM,0.0859 µM
O=C(c1ccc(CN2CCCC2)cc1)C1CCN(c2ccc(S(=O)(=O)C3(C(=O)NO)CCOCC3)cc2)CC1 [Example 385],0.0346 µM,0.0032 µM
COCCN1CCC(C(=O)NO)(S(=O)(=O)c2ccc(N3CCC(C(=O)c4ccc(CO)cc4)CC3)cc2)CC1 [Example 238],0.0621 µM,0.0018 µM
CN(C)Cc1ccc(C(=O)C2CCN(c3ccc(S(=O)(=O)C4(C(=O)NO)CCOCC4)cc3)CC2)cc1 [Example 384],0.0529 µM,0.0029 µM
C=CCN1CCC(C(=O)NO)(S(=O)(=O)c2ccc(N3CCC(C(=O)c4ccc(NC)cc4)CC3)cc2)CC1 [Example 161],0.235 µM,0.0003 µM
COCCN1CCC(C(=O)NO)(S(=O)(=O)c2ccc(N3CCC(C(=O)c4ccc(COCC5CC5)cc4)CC3)cc2)CC1 [Example 239],0.0758 µM,0.0006 µM
CC1CC(C)CN(C(=O)C2CCN(c3ccc(S(=O)(=O)C4(C(=O)NO)CCN(C(=O)CNCC(F)(F)F)CC4)cc3)CC2)C1 (stereo not drawn) [Example 113],10 µM,–
O=C(NO)C1(S(=O)(=O)c2ccc(N3CCC(c4nnc(-c5ccc(C(F)(F)F)cc5)o4)CC3)cc2)CCOCC1 [Example 375],2.66 µM,0.0344 µM
"C[C@@H]1C[C@H](C)CN(C(=O)C2CCN(c3ccc(S(=O)(=O)C4(C(=O)NO)CCNCC4)cc3)CC2)C1 [Example 74, rel-4-[[4-[4-[[(3R,5S)-3,5-dimethyl-1-piperidinyl]carbonyl]-1-piperidinyl]phenyl]sulfonyl]-N-hydroxy-4-piperidinecarboxamide, monohydrochloride]",10 µM,–
